Measured values as given in patent publication US20210170035A1, “METHOD OF TREATING CANCER BY TARGETING MYELOID-DERIVED SUPPRESSOR CELLS” (priority 2016, published 2021).

Key:
[1] = tested on: F4/80+ macrophages; assay: Intracellular staining of arginase on F4/80+ macrophages from 4T1 solid tumor; type: in vivo, balb/c mice; conditions: tumor digestion at end of therapeutic study
Protocol: Intracellular arginase staining: Cell surface markers for TAMs/MDSCs were labeled following procedures mentioned previously. 0.1 μL fixable viability dye eFluor® 660 was added together with antibody cocktails. After washing with PBS, cells were fixed with 4% formaldehyde in 500 μL of PBS for 15 min at 4° C. Cells were spun down to remove fixing solution. Cells were washed two times with 500 μL washing buffer containing 0.1 M glycine and 0.05% sodium azide. After being spun down a final time, cells were added 1 mL permeabilization solution containing 0.1 M glycine, 0.05% sodium azide and 0.1% triton-100. Permeabilization was performed at room temperature for 5 min. Permeabilized cells were spun down at 1500 rpm for 1 min, and the cells were washed three times with 1 mL blocking buffer containing 0.05 M glycine, 0.05% sodium azide and 0.2% gelatin. Cells were then re-suspended in 1 mL blocking buffer at 4° C. overnight to block non-specific intracellular binding. Cells were then spun down at 1500 rpm for 1 min to remove the supernatant and another 100 μL blocking buffer containing 1 μL FITC-arginase was added. Cells were kept in the dark at 4° C. overnight. After being spun down at 1500 rpm for 1 min, cells were washed with 1 mL blocking buffer and were then ready for flow cytometry analysis (BD Accuri C6™ flow cytometer). […]

[2] = tested on: F4/80+CD86+ : F4/80+CD206+ macrophages; assay: Ratio of M1 to M2 macrophages in 4T1 solid tumor; type: in vivo, balb/c mice; conditions: tumor digestion at end of therapeutic study
Protocol: The ratio of M1 to M2 macrophages (F4/80+CD86+: F4/80+CD206+) was tested in groups of untreated control, FA-TLR7 agonist, FA-PI3K inhibitor, FA-Tubulysin and combination as well as competition groups.
As described in the previous methods part, after tumor digestion at the end of therapeutic study, isolated cells were stained by F4/80 macrophage marker and M1 (CD86), M2 (CD206) markers. Macrophages in a tumor environment have been considered as a mainly M2 macrophage function, which can support tumor growth and suppress the immune response. On the other hand, M1 macrophages have been considered to be able to eliminate tumor cells and stimulate an anti-cancer immune response. Therefore, to study the M1 to M2 macrophage ratio is very important for targeting FR-β positive TAMs/MDSCs. […] Therefore, it could be concluded that by targeting FR+ TAMs/MDSCs in 4T1 solid tumor, the three classes of FA-conjugated […] are able to convert immunosuppression M2 macrophages environment to an anti-cancer M1 macrophages environment, which would contribute to the slow growth of a tumor.

[3] = tested on: MDSCs (CD11b+Gr1+); assay: MDSCs population (CD11b+Gr1+) in 4T1 solid tumor; type: in vivo, balb/c mice; conditions: tumor digestion at end of therapeutic study
Protocol: The MDSCs population (CD11b+Gr1+) was tested in groups of untreated control, FA-TLR7 agonist, FA-PI3K inhibitor, FA-Tubulysin and combination as well as competition groups.
As described in previous methods part, after tumor digestion at the end of therapeutic study, isolated cells were stained by MDSCs markers CD11b+Gr1+, see FIG. 26.

[4] = tested on: 4T1 solid tumor
Protocol: 4T1 solid tumor model: Female balb/c mice at the age of 6 to 8 weeks were kept on a folate deficient diet for 2 weeks. Before tumor implantation, fur on the left side of the mouse body was removed by an electric trimmer. 0.05 million 4T1 cells suspended in 50 μL completed RPMI 1640 medium were subcutaneously implanted near the mammary fat pad. Treatment was commenced at day 6 when the volume of tumor reached around 20 to 50 mm^3.
Treatment was continued for 2 weeks. Tumor volume was measured every day.
Treatment was conducted by i.v. injection of 100 μl of 10 nmol FA-TLR7 agonist in PBS for 5 days per week starting at day 6 after tumor implantation (subcutaneous, 0.05 million cells/mouse). Treatment was continued for 2 weeks. Competition group was conducted at the same schedule by co-injection of 200 times more competitors (FA-PEG-NH2) with 10 nmol of FA-TLR7 agonist. The total injection volume was 100 μl. Tumor volume was measured every day.
Treatment was conducted by i.v. injection of 100 μl of 30 nmol FA-tubulysin in PBS for 5 days per week starting at day 6 after tumor implantation (subcutaneous, 0.05 million cells/mouse). Treatment was continued for 2 weeks. Competition group was conducted at the same schedule by co-injection of 200 times more competitors (FA-PEG-NH2) with 30 nmol of FA-tubulysin. The total injection volume was 100 μl. Tumor volume was measured every day.
Treatment was conducted by i.v. injection of 100 μl of 10 nmol FA-PI3K inhibitor in PBS for 5 days per week starting at day 6 after tumor implantation (subcutaneous, 0.05 million cells/mouse). Treatment was continued for 2 weeks. Competition group was conducted at the same schedule by co-injection of 200 times more competitors (FA-PEG-NH2) with 10 nmol of FA-PI3K inhibitor. The total injection volume was 100 μl. Tumor volume was measured every day.

## Cc1c(CN2CCN(C(=O)C(C)OC(=O)OCCSSCC(NC(=O)CCC(NC(=O)c3ccc(NCc4cnc5nc(N)[nH]c(=O)c5n4)cc3)C(=O)O)C(=O)O)CC2)sc2c(N3CCOCC3)nc(-c3cnc(N)nc3)nc12 (centres unmarked) [FA-PI3K inhibitor]
[1]
  arginase+F4/80+ cell population in live cells vs untreated control: dramatically decreased
[2]
  M1 to M2 macrophages ratio vs untreated control: dramatically increased
[3]
  MDSCs population (CD11b+Gr1+) vs untreated control: no difference
[4]; competition group, same schedule
  anti-cancer effect on co-injection of 200 times more competitor (FA-PEG-NH2): can be competed
[4]; i.v. 5 days per week for 2 weeks from day 6, 10 nmol FA-TLR7 agonist, 10 nmol FA-PI3K inhibitor, 30 nmol FA-tubulysin
  tumor growth, therapeutic study: tumor growth was slowed down
